Results as given in ChEMBL document CHEMBL1137334 (J Med Chem, 2006).
Converted amounts (≈) assume the structure as drawn. One block for each molecule: values may come before it.

What was measured:
[1] = AUC (0-24h) in mouse at 20 mg/kg, po; format: ADME, organism-based; parameters: time < 24 hr, dose 20 mg/kg, route oral; details: plasma
[2] = target: Proto-oncogene tyrosine-protein kinase Src (Homo sapiens, UniProt P12931)
Description: Inhibition of human c-Src in NIH3T3 cells

[3] = system: A549; test: Inhibition of A549 cell migration by microdroplet migration assay; format: functional, cell-based; details: Homo sapiens
[4] = target: Vascular endothelial growth factor receptor 2 (Homo sapiens, UniProt P35968); test: Inhibition of KDR
Chain of Vascular endothelial growth factor receptor 2 (P35968 whole entry): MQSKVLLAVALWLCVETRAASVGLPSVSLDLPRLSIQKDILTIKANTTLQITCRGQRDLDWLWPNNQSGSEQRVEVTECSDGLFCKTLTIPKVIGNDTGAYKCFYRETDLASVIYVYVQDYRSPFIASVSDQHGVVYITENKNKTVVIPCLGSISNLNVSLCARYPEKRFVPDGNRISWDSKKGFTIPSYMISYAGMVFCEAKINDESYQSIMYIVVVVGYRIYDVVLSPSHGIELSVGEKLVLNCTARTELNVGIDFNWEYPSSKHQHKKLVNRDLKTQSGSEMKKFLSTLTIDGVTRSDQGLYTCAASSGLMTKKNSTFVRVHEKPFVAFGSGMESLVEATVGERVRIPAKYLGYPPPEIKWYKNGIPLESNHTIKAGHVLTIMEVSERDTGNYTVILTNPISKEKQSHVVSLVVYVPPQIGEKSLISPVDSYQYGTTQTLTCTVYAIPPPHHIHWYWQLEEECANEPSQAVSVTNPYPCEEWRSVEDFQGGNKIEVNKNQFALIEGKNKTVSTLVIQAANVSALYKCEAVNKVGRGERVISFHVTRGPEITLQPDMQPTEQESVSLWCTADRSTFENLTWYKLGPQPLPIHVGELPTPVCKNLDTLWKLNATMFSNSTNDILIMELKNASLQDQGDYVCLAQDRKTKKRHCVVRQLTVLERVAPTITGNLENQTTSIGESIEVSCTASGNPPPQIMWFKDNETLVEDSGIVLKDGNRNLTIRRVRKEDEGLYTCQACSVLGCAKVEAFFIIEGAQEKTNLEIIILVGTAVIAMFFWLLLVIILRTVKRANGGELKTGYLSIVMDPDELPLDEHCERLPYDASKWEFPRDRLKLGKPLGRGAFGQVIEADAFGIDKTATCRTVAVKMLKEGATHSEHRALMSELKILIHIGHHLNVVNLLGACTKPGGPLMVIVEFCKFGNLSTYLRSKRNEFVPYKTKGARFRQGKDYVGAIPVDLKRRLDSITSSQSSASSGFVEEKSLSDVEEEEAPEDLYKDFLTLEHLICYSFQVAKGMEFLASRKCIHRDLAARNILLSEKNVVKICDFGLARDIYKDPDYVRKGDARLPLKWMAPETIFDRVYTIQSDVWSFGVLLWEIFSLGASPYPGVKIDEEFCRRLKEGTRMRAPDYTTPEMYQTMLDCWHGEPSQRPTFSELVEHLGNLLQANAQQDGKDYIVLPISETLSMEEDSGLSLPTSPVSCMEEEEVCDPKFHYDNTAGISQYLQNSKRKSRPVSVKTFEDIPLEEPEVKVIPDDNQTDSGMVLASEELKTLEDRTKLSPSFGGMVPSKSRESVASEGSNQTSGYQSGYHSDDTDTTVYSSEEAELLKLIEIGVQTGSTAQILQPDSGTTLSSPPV

[5] = Dissociation constant, pKa of the basic side chain of compound; format: physicochemical
[6] = Lipophilicity, log D at pH 7.4; format: physicochemical; details: buffer
[7] = Aqueous solubility at pH 7.4; format: physicochemical
[8] = Percent of unbound ligand in rat plasma; format: ADME, organism-based
[9] = target: 3-phosphoinositide-dependent protein kinase 1 (Homo sapiens, UniProt O15530); test: Inhibition of PDK
Chain of 3-phosphoinositide-dependent protein kinase 1 (O15530 whole entry): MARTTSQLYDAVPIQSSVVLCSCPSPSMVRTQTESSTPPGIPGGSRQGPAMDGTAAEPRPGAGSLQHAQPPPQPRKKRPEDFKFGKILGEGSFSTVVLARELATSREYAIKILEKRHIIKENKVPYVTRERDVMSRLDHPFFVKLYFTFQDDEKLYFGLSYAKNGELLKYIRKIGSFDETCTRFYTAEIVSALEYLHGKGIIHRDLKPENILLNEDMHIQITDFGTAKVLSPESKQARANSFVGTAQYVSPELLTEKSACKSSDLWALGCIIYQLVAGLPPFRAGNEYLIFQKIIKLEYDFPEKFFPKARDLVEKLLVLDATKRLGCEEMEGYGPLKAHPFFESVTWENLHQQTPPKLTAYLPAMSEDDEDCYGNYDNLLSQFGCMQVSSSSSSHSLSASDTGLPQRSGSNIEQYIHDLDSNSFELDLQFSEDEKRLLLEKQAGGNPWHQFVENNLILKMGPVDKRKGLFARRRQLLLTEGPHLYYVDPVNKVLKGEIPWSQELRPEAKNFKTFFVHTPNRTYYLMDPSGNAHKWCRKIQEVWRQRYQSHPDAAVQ

[10] = target: Vascular endothelial growth factor receptor 3 (Homo sapiens, UniProt P35916); test: Inhibition of FLT4 by ELISA
[11] = Bioavailability in rat at 20 mg/kg, po and 2 mg/kg, iv; format: ADME, organism-based; details: in vivo
[12] = target: Tyrosine-protein kinase CSK (Homo sapiens, UniProt P41240); test: Inhibition of recombinant CSK by ELISA
[13] = Inhibition of PI3K; parameters: species or system Homo sapiens
[14] = target: Cyclin-dependent kinase 2 (Homo sapiens, UniProt P24941); test: Inhibition of CDK2 by SPA
[15] = target: Glycogen synthase kinase-3 beta (Homo sapiens, UniProt P49841); test: Inhibition of GSK3-beta
Chain of Glycogen synthase kinase-3 beta (P49841 whole entry): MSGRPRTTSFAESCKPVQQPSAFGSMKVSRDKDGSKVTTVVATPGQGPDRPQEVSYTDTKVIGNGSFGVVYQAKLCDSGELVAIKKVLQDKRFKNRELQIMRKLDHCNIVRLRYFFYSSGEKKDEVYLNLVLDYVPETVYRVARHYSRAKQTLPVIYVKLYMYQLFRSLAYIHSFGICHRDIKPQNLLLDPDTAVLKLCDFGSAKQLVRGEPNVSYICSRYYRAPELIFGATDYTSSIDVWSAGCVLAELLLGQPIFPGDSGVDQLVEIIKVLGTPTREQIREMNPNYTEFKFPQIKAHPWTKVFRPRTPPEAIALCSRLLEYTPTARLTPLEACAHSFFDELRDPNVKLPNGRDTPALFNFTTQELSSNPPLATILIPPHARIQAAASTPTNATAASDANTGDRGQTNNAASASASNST

[16] = target: Vascular endothelial growth factor receptor 1 (Homo sapiens, UniProt P17948); test: Inhibition of recombinant FLT1 by ELISA
Chain of Vascular endothelial growth factor receptor 1 (P17948 whole entry): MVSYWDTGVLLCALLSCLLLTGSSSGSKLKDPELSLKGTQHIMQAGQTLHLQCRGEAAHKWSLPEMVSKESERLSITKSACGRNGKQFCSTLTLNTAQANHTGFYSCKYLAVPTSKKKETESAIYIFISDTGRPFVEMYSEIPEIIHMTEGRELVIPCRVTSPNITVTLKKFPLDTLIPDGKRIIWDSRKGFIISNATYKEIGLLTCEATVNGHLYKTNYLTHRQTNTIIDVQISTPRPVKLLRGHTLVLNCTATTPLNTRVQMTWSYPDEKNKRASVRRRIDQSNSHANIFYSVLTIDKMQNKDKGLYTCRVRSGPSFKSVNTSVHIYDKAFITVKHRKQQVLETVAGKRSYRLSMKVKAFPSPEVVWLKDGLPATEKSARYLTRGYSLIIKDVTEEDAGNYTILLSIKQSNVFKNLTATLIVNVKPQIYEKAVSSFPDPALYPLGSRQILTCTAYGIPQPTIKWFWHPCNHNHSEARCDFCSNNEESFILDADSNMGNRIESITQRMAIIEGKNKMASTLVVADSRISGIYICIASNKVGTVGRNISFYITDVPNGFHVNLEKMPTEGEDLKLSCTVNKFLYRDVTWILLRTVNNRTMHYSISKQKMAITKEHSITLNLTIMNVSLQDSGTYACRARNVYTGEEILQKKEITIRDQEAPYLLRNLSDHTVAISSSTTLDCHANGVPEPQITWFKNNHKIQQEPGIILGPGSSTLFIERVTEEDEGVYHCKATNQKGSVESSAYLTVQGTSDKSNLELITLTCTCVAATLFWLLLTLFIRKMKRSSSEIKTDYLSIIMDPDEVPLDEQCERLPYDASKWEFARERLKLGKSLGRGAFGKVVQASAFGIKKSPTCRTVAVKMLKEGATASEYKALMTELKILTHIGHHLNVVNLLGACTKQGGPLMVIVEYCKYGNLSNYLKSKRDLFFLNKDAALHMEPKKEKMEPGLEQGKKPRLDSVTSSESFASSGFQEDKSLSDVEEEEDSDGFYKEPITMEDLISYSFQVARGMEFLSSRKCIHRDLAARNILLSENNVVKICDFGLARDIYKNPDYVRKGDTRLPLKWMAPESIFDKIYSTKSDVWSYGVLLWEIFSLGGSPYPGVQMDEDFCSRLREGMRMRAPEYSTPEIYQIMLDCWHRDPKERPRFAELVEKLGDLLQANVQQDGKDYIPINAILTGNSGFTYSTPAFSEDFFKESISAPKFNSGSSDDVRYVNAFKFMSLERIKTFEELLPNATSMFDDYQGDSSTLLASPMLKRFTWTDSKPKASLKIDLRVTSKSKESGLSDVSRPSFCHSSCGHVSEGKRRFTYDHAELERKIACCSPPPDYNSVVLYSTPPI

[17] = Inhibition of Chk; parameters: species or system Homo sapiens
[18] = Clearance in male dog; format: ADME, organism-based, Canis lupus familiaris; details: in vivo
[19] = (§1) Volume of distribution in male dog; format: ADME, organism-based, Canis lupus familiaris; details: male, in vivo, read-out: Vdss
[20] = target: cAMP-dependent protein kinase (PKA) (Homo sapiens, UniProt P22694+P17612+P22612); test: Inhibition of PKA; format: protein assay
[21] = target: Tyrosine-protein kinase Yes (Homo sapiens, UniProt P07947); test: Inhibition of recombinant C-YES by ELISA
[22] = target: Aurora kinase B (Homo sapiens, UniProt Q96GD4); test: Inhibition of recombinant Aurora B by ELISA
[23] = Percent of unbound ligand in dog plasma; format: ADME, organism-based, Canis lupus familiaris
[24] = system: NIH3T3; test: Antiproliferative activity against NIH 3T3 cells xenografted in athymic rat measured as inhibition of tumor volume at 10 mg/kg/day after 18 days; format: functional; details: NIH3T3, 432 h
[25] = Bioavailability in male dog; format: ADME, organism-based, Canis lupus familiaris; details: in vivo
[26] = Permeability from apical to basolateral side of NIH 3T3 cell; format: ADME, cell-based, NIH3T3; details: mouse, not told; read-out: permeability
[27] = Volume of distribution in rat at 20 mg/kg, po and 2 mg/kg, iv; format: ADME, organism-based; details: in vivo, read-out: Vdss
[28] = target: c-Jun N-terminal kinase, JNK (Homo sapiens, UniProt P45983+P53779+P45984); test: Inhibition of JNK; format: protein assay
[29] = target: Fibroblast growth factor receptor 1 (Homo sapiens, UniProt P11362); test: Inhibition of recombinant FGFR1 by ELISA
[30] = target: Protein kinase C alpha type (Homo sapiens, UniProt P17252); test: Inhibition of PKCalpha
[31] = Clearance in rat at 20 mg/kg, po and 2 mg/kg, iv; format: ADME, organism-based; details: in vivo
[32] = (§2) Half life in male dog; format: ADME, organism-based, Canis lupus familiaris; details: male, in vivo
[33] = Half life in rat at 20 mg/kg, po and 2 mg/kg, iv; format: ADME, organism-based; details: in vivo
[34] = species on record: Canis familiaris; test: as §1; format: ADME, organism-based, Canis lupus familiaris; details: in vivo
[35] = species on record: Canis familiaris; test: as §2; format: ADME, organism-based, Canis lupus familiaris; details: in vivo

Chain of Proto-oncogene tyrosine-protein kinase Src (P12931 2-536 limits assumed): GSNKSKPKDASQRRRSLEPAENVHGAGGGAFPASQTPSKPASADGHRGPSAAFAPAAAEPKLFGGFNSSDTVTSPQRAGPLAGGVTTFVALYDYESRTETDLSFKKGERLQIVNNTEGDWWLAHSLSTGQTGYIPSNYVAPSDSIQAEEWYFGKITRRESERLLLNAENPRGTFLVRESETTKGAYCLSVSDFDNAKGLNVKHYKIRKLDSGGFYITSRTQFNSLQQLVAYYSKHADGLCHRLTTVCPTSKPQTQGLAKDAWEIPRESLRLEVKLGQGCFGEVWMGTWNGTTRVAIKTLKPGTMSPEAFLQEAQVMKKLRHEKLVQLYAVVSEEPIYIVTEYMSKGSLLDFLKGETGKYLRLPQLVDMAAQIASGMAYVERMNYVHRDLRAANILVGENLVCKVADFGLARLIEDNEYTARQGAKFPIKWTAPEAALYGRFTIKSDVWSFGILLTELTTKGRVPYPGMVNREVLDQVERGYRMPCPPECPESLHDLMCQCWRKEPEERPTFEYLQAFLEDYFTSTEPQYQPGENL

Compound: COc1cc2c(Nc3c(Cl)ccc4c3OCO4)ncnc2cc1OCC1CCN(C)CC1
- AUC(0-t) at 24 h [1]: 38000 ng·h/mL

Compound: CC(C)Oc1cc(OCCCN2CCCC2)cc2ncnc(Nc3c(Cl)ccc4c3OCO4)c12
- IC50 [2]: < 0.004 µM
- IC50 [4]: 1.2 µM
- IC50 [3]: 0.15 µM

Compound: COc1cc(OC2CCN(C)CC2)c2c(Nc3c(Cl)ccc4c3OCO4)ncnc2c1
- IC50 [2]: 0.01 µM
- pKa [5]: 8.2
- IC50 [4]: 21.5 µM
- logD [6]: 2.9
- solubility [7]: > 1000 µM
- IC50 [3]: 0.15 µM
- fraction unbound [8]: 0.25
- AUC(0-t) at 24 h [1]: 50 ng·h/mL

Compound: CN1CCN(CCOc2cc(OC3CCOCC3)c3c(Nc4c(Cl)ccc5c4OCCO5)ncnc3c2)CC1
- IC50 [2]: 0.065 µM

Compound: Clc1ccc2c(c1Nc1ncnc3cc(OCCN4CCCC4)cc(OC4CCOCC4)c13)OCCO2
- IC50 [2]: 0.11 µM

Compound: Clc1ccc2c(c1Nc1ncnc3cccc(Oc4ccncc4)c13)OCO2
- IC50 [2]: 0.055 µM
- IC50 [4]: > 33 µM
- IC50 [3]: 0.5 µM

Compound: COc1ccc(Cl)c(Nc2ncnc3cc(OC)c(OC)cc23)c1
- IC50 [2]: 0.25 µM

Compound: COc1cc(Oc2ccncc2)c2c(Nc3c(Cl)ccc4c3OCO4)ncnc2c1
- IC50 [2]: 0.0095 µM
- IC50 [4]: 21.5 µM
- IC50 [3]: 0.15 µM
- AUC(0-t) at 24 h [1]: 100 ng·h/mL

Compound: Clc1ccc2c(c1Nc1ncnc3cc(OCCc4ccncc4)cc(OC4CCOCC4)c13)OCO2
- IC50 [2]: 0.003 µM
- pKa [5]: 6.4
- IC50 [4]: > 5 µM
- logD [6]: > 3.1
- solubility [7]: 1.5 µM (≈ 0.781 µg/mL)
- IC50 [3]: 0.07 µM
- fraction unbound [8]: 0.017
- AUC(0-t) at 24 h [1]: 6000 ng·h/mL

Compound: CN1CCC(Oc2cc(OCCF)cc3ncnc(Nc4c(Cl)ccc5c4OCO5)c23)CC1
- IC50 [2]: 0.004 µM
- IC50 [4]: > 20 µM
- IC50 [3]: 0.09 µM

Compound: COc1cc(OC2CCN(C)CC2)c2c(Nc3cccc4c3OCCO4)ncnc2c1
- IC50 [2]: 0.57 µM
- IC50 [4]: 0.5 µM

Compound: c1cc(Nc2ncnc3cc(OCCN4CCCC4)cc(OC4CCOCC4)c23)c2c(c1)OCCO2
- IC50 [2]: 0.085 µM
- IC50 [4]: 0.05 µM

Compound: CN1CCC(Oc2cccc3ncnc(Nc4c(Cl)ccc5c4OCO5)c23)CC1
- IC50 [2]: 0.1 µM
- IC50 [3]: 0.7 µM

Compound: COc1cc(OC2CCN(C)CC2)c2c(Nc3cccc4c3OCO4)ncnc2c1
- IC50 [2]: 0.15 µM
- IC50 [4]: 2.5 µM

Compound: Clc1ccc2c(c1Nc1ncnc3cc(OCCN4CCCC4)cc(OC4CCOCC4)c13)OCO2
- IC50 [2]: 0.006 µM
- IC50 [4]: > 10 µM
- IC50 [3]: 0.3 µM
- AUC(0-t) at 24 h [1]: 9000 ng·h/mL

Compound: c1cc(Nc2ncnc3cc(OCCN4CCCC4)cc(OC4CCOCC4)c23)c2c(c1)OCO2
- IC50 [2]: 0.08 µM
- IC50 [4]: 0.65 µM

Compound: Clc1ccc2c(c1Nc1ncnc3cc(OCCN4CCCC4)cc(N4CCOCC4)c13)OCO2
- IC50 [2]: 0.075 µM
- IC50 [4]: 5 µM
- IC50 [3]: 1.2 µM

Compound: CN1CCC(COc2cccc3ncnc(Nc4c(Cl)ccc5c4OCO5)c23)CC1
- IC50 [2]: 0.5 µM

Continued, in another order:

- IC50 [2]: 0.02 µM
- IC50 [3]: 0.08 µM
Compound: COc1ccc(Cl)c(Nc2ncnc3cc(OCCCN4CCOCC4)cc(OC4CCOCC4)c23)c1

- IC50 [2]: 0.007 µM
- IC50 [4]: > 10 µM
- IC50 [3]: 0.2 µM
- AUC(0-t) at 24 h [1]: 600 ng·h/mL
Compound: CC(C)COc1cc(OC2CCN(C)CC2)c2c(Nc3c(Cl)ccc4c3OCO4)ncnc2c1

- IC50 [2]: 0.04 µM
- IC50 [4]: 0.1 µM
Compound: c1cc(Nc2ncnc3cc(OCCCN4CCCC4)cc(OC4CCOCC4)c23)c2c(c1)OCO2

- IC50 [2]: 0.015 µM
Compound: COc1cc(OCCCN2CCCC2)cc2ncnc(Nc3c(Cl)ccc4c3OCO4)c12

- IC50 [2]: < 0.004 µM
- IC50 [4]: 1 µM
- IC50 [3]: 0.2 µM
Compound: CN1CCN(CCCOc2cc(OC3CCOCC3)c3c(Nc4c(Cl)ccc5c4OCO5)ncnc3c2)CC1

- IC50 [2]: 3.7 µM
Compound: COc1ccc(Cl)c(Nc2ncnc3cc(OC)cc(OC)c23)c1

- IC50 [2]: < 0.004 µM
- pKa [5]: 9.5
- IC50 [9]: > 10 µM
- IC50 [10]: > 10 µM
- bioavailability [11]: 60%
- IC50 [12]: 0.27 µM
- IC50 [13]: > 10 µM
- IC50 [14]: > 10 µM
- IC50 [15]: > 10 µM
- IC50 [16]: > 33 µM
- IC50 [17]: > 10 µM
- clearance [18]: 15 mL/min/kg
- Vd [19]: 38 L/kg
- IC50 [20]: > 10 µM
- IC50 [4]: 2.5 µM
- logD [6]: 2.3
- IC50 [21]: 0.003 µM
- solubility [7]: 1000 µM (≈ 527 µg/mL)
- IC50 [22]: 8.9 µM
- fraction unbound [23]: 0.17
- bioavailability [25]: 85%
- Papp A→B [26]: > 1 ×10⁻⁶ cm/s
- Vd [27]: 15 L/kg
- IC50 [28]: > 10 µM
- IC50 [3]: 0.15 µM
- IC50 [29]: 37 µM
- IC50 [30]: > 10 µM
- fraction unbound [8]: 0.16
- clearance [31]: 48.3 mL/min/kg
- half-life [32]: 29 h
- half-life [33]: 3.5 h
- AUC(0-t) at 24 h [1]: 13000 ng·h/mL
Compound: Clc1ccc2c(c1Nc1ncnc3cc(OCCCN4CCCC4)cc(OC4CCOCC4)c13)OCO2
- inhibition in vivo at 10 mg/kg/day [24]: 90%

- IC50 [2]: 0.02 µM
- IC50 [4]: 5.5 µM
- IC50 [3]: 2.5 µM
Compound: COc1ccc(Cl)c(Nc2ncnc3cc(OCCCN4CCOCC4)cc(OC4CCCCC4)c23)c1

- IC50 [2]: 0.54 µM
Compound: COc1ccc(Cl)c(Nc2ncnc3ccc(OC)c(OC4CCN(C)CC4)c23)c1

- IC50 [2]: < 0.004 µM
- IC50 [4]: 0.04 µM
- IC50 [3]: 0.3 µM
Compound: COc1ccc(Cl)c(Nc2ncnc3cc(OCCCN4CCN(C)CC4)cc(OC4CCOCC4)c23)c1

- IC50 [2]: 0.1 µM
Compound: CC(C)Oc1cc(OC2CCN(C)CC2)c2c(Nc3c(Cl)ccc4c3OCO4)ncnc2c1

- IC50 [2]: 0.23 µM
Compound: COc1ccc(Cl)c(Nc2ncnc3cc(OC)cc(OCCCN4CCOCC4)c23)c1

- IC50 [3]: 0.4 µM
Compound: COc1ccc(Cl)c(Nc2ncnc3cc(OCCCN4CCOCC4)cc(OC(C)C)c23)c1

- IC50 [2]: 0.03 µM
- IC50 [4]: > 2 µM
- IC50 [3]: 0.3 µM
Compound: COc1ccc(Cl)c(Nc2ncnc3cc(OC)cc(OC4CCN(C)CC4)c23)c1

- IC50 [2]: 0.4 µM
Compound: COc1ccc(Cl)c(Nc2ncnc3cccc(OC4CCOCC4)c23)c1

- IC50 [2]: 0.005 µM
- AUC(0-t) at 24 h [1]: 13000 ng·h/mL
Compound: COc1cc2c(Nc3c(Cl)ccc4c3OCO4)ncnc2cc1OCCCN1CCCC1

- IC50 [2]: 0.3 µM
- IC50 [4]: > 5 µM
Compound: COc1ccc(Cl)c(Nc2ncnc3cccc(OC4CCN(C)CC4)c23)c1

- IC50 [2]: 0.02 µM
- IC50 [4]: 6.5 µM
- IC50 [3]: 0.29 µM
Compound: CC(=O)N1CCN(CCOc2cc(OC(C)C)c3c(Nc4c(F)ccc5c4OCO5)ncnc3c2)CC1

- IC50 [2]: 0.6 µM
Compound: COc1ccc(Cl)c(Nc2ncnc3ccc(OCCCN4CCN(C)CC4)c(OC4CCOCC4)c23)c1

- IC50 [2]: 0.005 µM
- pKa [5]: 6.5
- IC50 [4]: 10 µM
- logD [6]: 3.7
- solubility [7]: 2 µM (≈ 0.974 µg/mL)
- IC50 [3]: 0.1 µM
- fraction unbound [8]: 0.025
Compound: CC(C)Oc1cc(OCCN2CCOCC2)cc2ncnc(Nc3c(Cl)ccc4c3OCO4)c12

- IC50 [2]: < 0.004 µM
- IC50 [4]: 0.05 µM
Compound: COc1ccc(Cl)c(Nc2ncnc3cc(OCCCN4CCOCC4)cc(OC4CCOC4)c23)c1 (racemic)

- pKa [5]: 9
- Vdss [34]: 43 L/kg
- logD [6]: 2
- solubility [7]: 324 µM (≈ 144 µg/mL)
- bioavailability [25]: 42%
- IC50 [3]: 0.48 µM
- fraction unbound [8]: 0.075
- T1/2 [35]: 4.2 h
Compound: COc1ccc(Cl)c(Nc2ncnc3cc(OCC4CCN(C)CC4)c(OC)cc23)c1 [AZM-475271]
